We go through one molecule from US8039619B2, “Process for preparing (2R,3S/2S,3R)-2-(2,4-difluorophenyl)-3-(5-fluoropyrimidin-4-yl)-1-(1H-1,2,4-triazol-1-yl)butan-2-ol” (Dr. Reddy's Laboratories Limited, priority 2004, dated 2011).

The structures appear in SMILES notation. In brackets after ≈: the same amount, converted by molar mass.

This data set can be described thus: Solubility comparison at room temperature. Type of data set: physicochemical. Particulars: organic solvent or mixture. From the text:
Solubility comparison at room temperature (values in mg/l): […]

With `C[C@@H](c1ncncc1F)[C@](O)(Cn1cncn1)c1ccc(F)cc1F` [Crystalline Form B, (2R,3S)-2-(2,4-diflurophenyl)-3-(5-fluoropyrimidin-4-yl)-1-(1H-1,2,4-triazol-1-yl) -butan-2-ol], the solubility by setting is: (Acetone) 250 µg/mL (≈ 716 µM); (Methanol) 125 µg/mL (≈ 358 µM).

What is called solubility is the concentration that dissolves in the medium under given conditions.
